Test results reported in patent publication US10590140B2, “Tetrahydropyrimidodiazepine and dihydropyridodiazepine compounds for treating pain and pain related conditions” (ESTEVE PHARMACEUTICALS, S.A., priority 2016, dated 2020).
Where two headings read alike, the source gives them in different places.

Assays:
[1] = target: human norepinephrine transporter (NET) (Homo sapiens (Human), UniProt P23975); test: Binding assay to human norepinephrine transporter (NET) ([3H]-Nisoxetin); details: Table 2, dual compounds; [3H]-Nisoxetin binding
Method: Binding Assay to Human Norepinephrine Transporter (NET).
Human norepinephrine transporter (NET) enriched membranes (5 μg) were incubated with 5 nM of radiolabeled [3H]-Nisoxetin in assay buffer containing 50 mM Tris-HCl, 120 mM NaCl, 5 mM KCl, pH 7.4.
NSB (non specific binding) was measured by adding 1 μM. After 60 min incubation at 4° C., binding reaction was terminated by filtering through Multiscreen GF/C (Millipore) presoaked in 0.5% polyethyleneimine in Vacuum Manifold Station, followed by 3 washes with ice-cold filtration buffer containing 50 mM Tris-HCl, 0.9% NaCl, pH 7.4.
Filter plates were dried at 60° C. for 1 hour and 30 μl of scintillation cocktail were added to each well before radioactivity reading.

[2] = target: human α2δ-1 subunit of Cav2.2 calcium channel (Homo sapiens (Human), UniProt P54289); test: Binding assay to human α2δ-1 subunit of Cav2.2 calcium channel ([3H]-Gabapentin); details: read-out: Ki (nM) α2δ-1
Method in brief: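 Radioactivity on dried GF/C filters quantified by scintillation after filtration and three cold Tris-HCl (pH 7.4) washes. Incubation ran 60 min at 27° C with [3H]-gabapentin; 10 μM pregabalin gave nonspecific binding.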

[3] = Table 2, dual compounds, [3H]-Gabapentin binding
[4] = binding to α2δ-1, [3H]-Gabapentin

Chain of human norepinephrine transporter (NET) (P23975 whole entry): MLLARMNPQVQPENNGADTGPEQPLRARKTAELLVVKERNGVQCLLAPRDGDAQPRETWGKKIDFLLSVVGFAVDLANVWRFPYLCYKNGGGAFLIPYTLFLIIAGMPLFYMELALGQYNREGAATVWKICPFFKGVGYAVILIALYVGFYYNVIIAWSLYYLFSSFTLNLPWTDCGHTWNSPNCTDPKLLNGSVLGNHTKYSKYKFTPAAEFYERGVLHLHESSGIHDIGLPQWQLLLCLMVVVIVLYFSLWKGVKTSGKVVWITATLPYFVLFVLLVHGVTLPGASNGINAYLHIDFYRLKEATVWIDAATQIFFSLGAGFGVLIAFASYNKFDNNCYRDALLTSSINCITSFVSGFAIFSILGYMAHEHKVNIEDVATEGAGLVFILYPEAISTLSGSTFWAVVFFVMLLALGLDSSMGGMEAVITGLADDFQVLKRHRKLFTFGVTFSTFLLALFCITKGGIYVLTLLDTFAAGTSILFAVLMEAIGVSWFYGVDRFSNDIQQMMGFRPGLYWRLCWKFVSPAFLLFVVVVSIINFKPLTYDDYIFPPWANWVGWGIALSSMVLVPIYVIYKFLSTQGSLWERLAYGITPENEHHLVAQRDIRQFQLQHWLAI
Chain of human α2δ-1 subunit of Cav2.2 calcium channel (P54289 25-1103): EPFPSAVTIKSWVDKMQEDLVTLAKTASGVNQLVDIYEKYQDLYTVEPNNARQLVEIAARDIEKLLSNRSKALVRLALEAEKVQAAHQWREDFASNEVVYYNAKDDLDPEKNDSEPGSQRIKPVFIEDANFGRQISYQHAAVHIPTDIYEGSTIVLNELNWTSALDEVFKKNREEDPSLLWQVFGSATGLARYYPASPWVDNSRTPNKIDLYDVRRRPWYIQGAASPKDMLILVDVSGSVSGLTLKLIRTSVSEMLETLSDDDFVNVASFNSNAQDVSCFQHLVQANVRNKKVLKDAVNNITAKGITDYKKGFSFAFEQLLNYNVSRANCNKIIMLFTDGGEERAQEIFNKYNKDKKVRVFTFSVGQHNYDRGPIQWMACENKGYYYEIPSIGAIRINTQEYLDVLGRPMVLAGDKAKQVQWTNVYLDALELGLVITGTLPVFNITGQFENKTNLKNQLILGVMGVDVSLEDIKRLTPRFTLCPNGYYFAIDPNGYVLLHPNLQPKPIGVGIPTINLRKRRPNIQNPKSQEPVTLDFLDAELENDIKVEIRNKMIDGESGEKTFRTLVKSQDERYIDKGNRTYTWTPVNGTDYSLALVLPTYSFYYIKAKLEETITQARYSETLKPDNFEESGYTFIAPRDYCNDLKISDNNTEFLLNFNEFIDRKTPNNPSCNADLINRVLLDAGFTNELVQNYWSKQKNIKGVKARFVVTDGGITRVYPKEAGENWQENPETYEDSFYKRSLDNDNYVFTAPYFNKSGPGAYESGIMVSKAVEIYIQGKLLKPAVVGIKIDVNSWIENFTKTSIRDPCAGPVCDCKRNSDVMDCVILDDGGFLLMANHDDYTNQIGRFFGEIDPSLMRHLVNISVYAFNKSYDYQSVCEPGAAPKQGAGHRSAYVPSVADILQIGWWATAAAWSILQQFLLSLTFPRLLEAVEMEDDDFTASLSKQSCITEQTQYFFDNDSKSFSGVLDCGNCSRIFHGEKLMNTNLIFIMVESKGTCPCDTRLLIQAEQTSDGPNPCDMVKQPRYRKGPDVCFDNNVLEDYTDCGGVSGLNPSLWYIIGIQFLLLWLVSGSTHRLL

SMILES	Ki [1]	Ki [2, 3]	Ki [2, 4]
CNCC[C@@H](OCc1cccc(N2CCN(C)c3nc(C)ncc3C2=O)c1)c1ccccc1 [Example 206, (R)-2,9-dimethyl-6-(3-((3-(methylamino)-1-phenylpropoxy)methyl)phenyl)-6,7,8,9-tetrahydro-5H-pyrimido[4,5-e][1,4]diazepin-5-one]	100 to 500 nM	100 to 500 nM	500 to 3000 nM
CNCC[C@@H](OCc1cccc(N2CCN(C)c3ncncc3C2=O)c1)c1ccccc1 [Example 207, (R)-9-methyl-6-(3-((3-(methylamino)-1-phenylpropoxy)methyl)phenyl)-6,7,8,9-tetrahydro-5H-pyrimido[4,5-e][1,4]diazepin-5-one]	500 to 1000 nM	500 to 3000 nM	500 to 3000 nM
CNCCC(OCc1cccc(N2CCN(C)c3nc(SC)ncc3C2=O)c1)c1cccs1 (stereo not drawn) [Example 208, 9-Methyl-6-(3-((3-(methylamino)-1-(thiophen-2-yl)propoxy)methyl)phenyl)-2-(methylthio)-6,7,8,9-tetrahydro-5H-pyrimido[4,5-e][1,4]diazepin-5-one]	500 to 1000 nM	500 to 3000 nM	500 to 3000 nM
CNCC[C@@H](OCc1cccc(N2CCN(C)c3nc(SC)ncc3C2=O)c1)c1cccs1 [Example 209, (R)-9-methyl-6-(3-((3-(methylamino)-1-(thiophen-2-yl)propoxy)methyl)phenyl)-2-(methylthio)-6,7,8,9-tetrahydro-5H-pyrimido[4,5-e][1,4]diazepin-5-one]	100 to 500 nM	100 to 500 nM	100 to 500 nM
CNCC[C@H](OCc1cccc(N2CCN(C)c3nc(SC)ncc3C2=O)c1)c1cccs1 [Example 210, (S)-9-methyl-6-(3-((3-(methylamino)-1-(thiophen-2-yl)propoxy)methyl)phenyl)-2-(methylthio)-6,7,8,9-tetrahydro-5H-pyrimido[4,5-e][1,4]diazepin-5-one]	100 to 500 nM	> 3000 nM	> 3000 nM
CCNc1ncc2c(n1)N(C)CCN(c1cccc(COC(CNC)c3ccccc3)c1)C2=O (stereo not drawn) [Example 225, 2-(Ethylamino)-9-methyl-6-(3-((2-(methylamino)-1-phenylethoxy)methyl)phenyl)-6,7,8,9-tetrahydro-5H-pyrimido[4,5-e][1,4]diazepin-5-one]	> 1000 nM	500 to 3000 nM	500 to 3000 nM
CNCC(OCc1cccc(N2CCN(C)c3nc(SC)ncc3C2=O)c1)c1ccccc1 (stereo not drawn) [Example 226, 9-methyl-6-(3-((2-(methylamino)-1-phenylethoxy)methyl)phenyl)-2-(methylthio)-6,7,8,9-tetrahydro-5H-pyrimido[4,5-e][1,4]diazepin-5-one]	500 to 1000 nM	> 3000 nM	> 3000 nM
CCNc1ncc2c(n1)N(C)CCN(c1cccc(CO[C@H](CCN(C)C)c3ccccc3)c1)C2=O [Example 236, (R)-6-(3-((3-(Dimethylamino)-1-phenylpropoxy)methyl)phenyl)-2-(ethylamino)-9-methyl-6,7,8,9-tetrahydro-5H-pyrimido[4,5-e][1,4]diazepin-5-one]	500 to 1000 nM	500 to 3000 nM	500 to 3000 nM
CCNc1ncc2c(n1)N(C)CCN(c1cccc(CO[C@@H](CCN(C)C)c3ccccc3)c1)C2=O [Example 237, (S)-6-(3-((3-(dimethylamino)-1-phenylpropoxy)methyl)phenyl)-2-(ethylamino)-9-methyl-6,7,8,9-tetrahydro-5H-pyrimido[4,5-e][1,4]diazepin-5-one]	> 1000 nM	500 to 3000 nM	500 to 3000 nM
CCNc1ncc2c(n1)N(C)CCN(c1cccc(OC(CN(C)C)c3ccccc3)c1)C2=O (stereo not drawn) [Example 239, 6-(3-(2-(dimethylamino)-1-phenylethoxy)phenyl)-2-(ethylamino)-9-methyl-6,7,8,9-tetrahydro-5H-pyrimido[4,5-e][1,4]diazepin-5-one]	500 to 1000 nM	> 3000 nM	> 3000 nM
CCNc1ncc2c(n1)N(C)CCN(c1cccc(-n3cc(CN(C)Cc4ccccc4)nn3)c1)C2=O [Example 243, 6-(3-(4-((benzyl(methyl)amino)methyl)-1H-1,2,3-triazol-1-yl)phenyl)-2-(ethylamino)-9-methyl-6,7,8,9-tetrahydro-5H-pyrimido[4,5-e][1,4]diazepin-5-one]	< 100 nM	500 to 3000 nM	500 to 3000 nM
CSc1ncc2c(n1)N(C)CCN(c1cccc(COC3(c4ccccc4)CCN(C)CC3)c1)C2=O [Example 271, 9-methyl-6-(3-(((1-methyl-4-phenylpiperidin-4-yl)oxy)methyl)phenyl)-2-(methylthio)-6,7,8,9-tetrahydro-5H-pyrimido[4,5-e][1,4]diazepin-5-one]	> 1000 nM	> 3000 nM	> 3000 nM

The remaining lines, values ahead:

Ki [1]	Ki [2, 3]	Ki [2, 4]	SMILES
< 100 nM	500 to 3000 nM	500 to 3000 nM	CCNc1ncc2c(n1)N(C)CCN(c1cccc(-n3cc(CN(C)CCc4ccccc4)nn3)c1)C2=O [Example 244, 2-(ethylamino)-9-methyl-6-(3-(4-((methyl(phenethyl)amino)methyl)-1H-1,2,3-triazol-1-yl)phenyl)-6,7,8,9-tetrahydro-5H-pyrimido[4,5-e][1,4]diazepin-5-one]
100 to 500 nM	100 to 500 nM	100 to 500 nM	CCNc1ncc2c(n1)N(C)CCN(c1cccc(-n3cc(CN(C)CC4CC4)nn3)c1)C2=O [Example 246, 6-(3-(4-(((cyclopropylmethyl)(methyl)amino)methyl)-1H-1,2,3-triazol-1-yl)phenyl)-2-(ethylamino)-9-methyl-6,7,8,9-tetrahydro-5H-pyrimido[4,5-e][1,4]diazepin-5-one]
100 to 500 nM	500 to 3000 nM	500 to 3000 nM	CCNc1ncc2c(n1)N(C)CCN(c1cccc(-n3cc(CN(C)CCc4ccccc4)cn3)c1)C2=O [Example 252, 2-(ethylamino)-9-methyl-6-(3-(4-((methyl(phenethyl)amino)methyl)-1H-pyrazol-1-yl)phenyl)-6,7,8,9-tetrahydro-5H-pyrimido[4,5-e][1,4]diazepin-5-one]
100 to 500 nM	100 to 500 nM	100 to 500 nM	CCNc1ncc2c(n1)N(C)CCN(c1cccc(-n3cnc(CN(C)Cc4ccccc4)c3)c1)C2=O [Example 253, 6-(3-(4-((benzyl(methyl)amino)methyl)-1H-imidazol-1-yl)phenyl)-2-(ethylamino)-9-methyl-6,7,8,9-tetrahydro-5H-pyrimido[4,5-e][1,4]diazepin-5-one]
500 to 1000 nM	500 to 3000 nM	500 to 3000 nM	CCNc1ncc2c(n1)N(C)CCN(c1cccc(-n3cnc(CN(C)CCc4ccccc4)c3)c1)C2=O [Example 254, 2-(ethylamino)-9-methyl-6-(3-(4-((methyl(phenethyl)amino)methyl)-1H-imidazol-1-yl)phenyl)-6,7,8,9-tetrahydro-5H-pyrimido[4,5-e][1,4]diazepin-5-one]
100 to 500 nM	100 to 500 nM	100 to 500 nM	CCNc1ncc2c(n1)N(C)CCN(c1cccc(C3CCN(CCc4ccccc4)CC3)c1)C2=O [Example 261, 2-(ethylamino)-9-methyl-6-(3-(1-phenethylpiperidin-4-yl)phenyl)-6,7,8,9-tetrahydro-5H-pyrimido[4,5-e][1,4]diazepin-5-one]
100 to 500 nM	100 to 500 nM	100 to 500 nM	CCNc1ncc2c(n1)N(C)CCN(c1cccc(OCCN(C)Cc3ccccc3)c1)C2=O [Example 264, 6-(3-(2-(benzyl(methyl)amino)ethoxy)phenyl)-2-(ethylamino)-9-methyl-6,7,8,9-tetrahydro-5H-pyrimido[4,5-e][1,4]diazepin-5-one]
100 to 500 nM	100 to 500 nM	100 to 500 nM	CCNc1ncc2c(n1)N(C)CCN(c1cccc(OCCN(C)CCc3ccccc3)c1)C2=O [Example 265, 2-(ethylamino)-9-methyl-6-(3-(2-(methyl(phenethyl)amino)ethoxy)phenyl)-6,7,8,9-tetrahydro-5H-pyrimido[4,5-e][1,4]diazepin-5-one]
< 100 nM	500 to 3000 nM	500 to 3000 nM	CCNc1ncc2c(n1)N(C)CCN(c1cccc(-n3cc(CN4CCC(c5ccccc5)CC4)nn3)c1)C2=O [Example 278, 2-(Ethylamino)-9-methyl-6-(3-(4-((4-phenylpiperidin-1-yl)methyl)-1H-1,2,3-triazol-1-yl)phenyl)-6,7,8,9-tetrahydro-5H-pyrimido[4,5-e][1,4]diazepin-5-one]
100 to 500 nM	100 to 500 nM	100 to 500 nM	CCNc1ncc2c(n1)N(C)CCN(c1cccc(-n3cc(CN4CCCCC4)nn3)c1)C2=O [Example 281, 2-(ethylamino)-9-methyl-6-(3-(4-(piperidin-1-ylmethyl)-1H-1,2,3-triazol-1-yl)phenyl)-6,7,8,9-tetrahydro-5H-pyrimido[4,5-e][1,4]diazepin-5-one]
100 to 500 nM	100 to 500 nM	100 to 500 nM	CCNc1ncc2c(n1)N(C)CCN(c1cccc(-n3cc(CNCC4CC4)nn3)c1)C2=O [Example 285, 6-(3-(4-(((cyclopropylmethyl)amino)methyl)-1H-1,2,3-triazol-1-yl)phenyl)-2-(ethylamino)-9-methyl-6,7,8,9-tetrahydro-5H-pyrimido[4,5-e][1,4]diazepin-5-one]
